Molecules are shown by their SMILES.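 A five-concentration, 48-hour dose response in 96-well plates underlies each endpoint, interpolated linearly between surrounding concentrations. GI50 is the concentration that inhibits growth by half. TGI denotes the concentration required for complete inhibition of growth.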 Where only a bound is given, the exact number is not on record here.

Among the test systems are HCT-116 colon; IGROV1 ovarian; NCI-H522 lung; MDA-MB-231 breast; MCF7 breast; BT-549 breast; UACC-257 melanoma; RXF 393 renal; MDA-N; K-562 leukemia.
What all share (assay): inhibition of tumour cell growth, NCI panel, 48 h

Turning to `Nc1nc(Nc2cc(F)c(Cl)c(F)c2)cc(=O)[nH]1`, the TGI in the assay with HCT-116 colon, with IGROV1 ovarian, in the assay with NCI-H522 lung, in the assay on MDA-MB-231 breast, in the assay with MCF7 breast and in the assay on BT-549 breast was > 100 µM each time. In addition, in the assay on UACC-257 melanoma, the TGI was > 100 µM.
Consider `CC(C)[C@H](NC(=O)OCc1ccccc1)C(=O)N[C@H](/C=C/C(=O)OC(C)(C)C)CO`, for which the TGI with HCT-116 colon, in the assay on IGROV1 ovarian, in the assay on NCI-H522 lung, in the assay on MDA-MB-231 breast, in the assay on RXF 393 renal and with MCF7 breast was > 100 µM throughout. The TGI in the assay on MDA-N and in the assay with UACC-257 melanoma was > 100 µM throughout.
Consider `NS(=O)(=O)c1cc2c(cc1Cl)NC(C(=O)NNC(=O)c1ccncc1)=NS2(=O)=O`, for which the TGI in the assay with HCT-116 colon, in the assay on IGROV1 ovarian, with NCI-H522 lung, in the assay with RXF 393 renal and in the assay with UACC-257 melanoma was > 100 µM throughout.
For the molecule `Nn1c(=S)[nH]nc(/C=C/c2c(O)ccc3ccccc23)c1=O`, the TGI is 12.5 µM in the assay with HCT-116 colon; 5.56 µM in the assay on IGROV1 ovarian; > 100 µM in the assay on K-562 leukemia; 16.7 µM in the assay with NCI-H522 lung; 12.6 µM in the assay on MCF7 breast; > 100 µM with MDA-N. The figures for the TGI in the assay with BT-549 breast and in the assay with UACC-257 melanoma were 31.3 µM and 50.9 µM, respectively.
`Cc1cc(NS(=O)(=O)c2ccc(NC(NC(=O)OC(C)C)(C(F)(F)F)C(F)(F)F)cc2)nc(C)n1`: the TGI in the assay with HCT-116 colon, in the assay with IGROV1 ovarian, in the assay with K-562 leukemia, with MDA-MB-231 breast, with RXF 393 renal and with MCF7 breast was > 100 µM throughout. Also, the TGI in the assay with MDA-N and with UACC-257 melanoma was > 100 µM in each case.
With `Cc1c(N(Cc2ccccc2)Cc2ccccc2)nc(S(C)(=O)=O)nc1S(C)(=O)=O`, the TGI in the assay on HCT-116 colon turned out to be 3.02 µM; with IGROV1 ovarian, 3.21 µM; in the assay on K-562 leukemia, 4.83 µM; with NCI-H522 lung, 3.14 µM; with RXF 393 renal it was 3.1 µM; in the assay with UACC-257 melanoma, 3.76 µM.
In the case of `O=C(Nc1nc2ccc([N+](=O)[O-])cc2s1)c1cc([N+](=O)[O-])ccc1Cl`, the TGI stood at 5.33 µM in the assay on HCT-116 colon; 4.39 µM in the assay on NCI-H522 lung; 21.3 µM in the assay on MDA-MB-231 breast; 15.5 µM with RXF 393 renal; 5.04 µM with MDA-N; 6.83 µM with BT-549 breast. This molecule had a TGI in the assay on UACC-257 melanoma of 19.2 µM.
As to `C(/Cc1ccc2c(c1)OCO2)=N\NC1=NCCCCN1`, the TGI in the assay on HCT-116 colon, in the assay with IGROV1 ovarian, in the assay with K-562 leukemia, in the assay with NCI-H522 lung, in the assay on MDA-MB-231 breast and with RXF 393 renal was > 100 µM each time. Moreover, the TGI in the assay with MCF7 breast, in the assay on BT-549 breast and with UACC-257 melanoma was > 100 µM throughout.
Take `COc1ccc(-c2cc(-c3ccc(Nc4ccnc5cc(C(F)(F)F)ccc45)cc3)nc(N)c2C#N)c2ccccc12`: the TGI with HCT-116 colon, in the assay with MDA-MB-231 breast, with RXF 393 renal, in the assay with MCF7 breast and in the assay with BT-549 breast was > 100 µM each time.
On to `Cc1cc(N(CCCl)CCCl)ccc1/C=N\NC(=O)c1cccnc1`, for which the GI50 is 26.9 µM in the assay on HCT-116 colon; 35.9 µM in the assay with IGROV1 ovarian; 20.1 µM with K-562 leukemia; 15.2 µM in the assay with NCI-H522 lung; 29.3 µM in the assay with MDA-MB-231 breast; 19.2 µM in the assay with RXF 393 renal. The GI50 with MCF7 breast is 16.8 µM; with BT-549 breast it was 19.4 µM; in the assay with UACC-257 melanoma it was 6.96 µM. Also, the TGI with HCT-116 colon was > 100 µM; with IGROV1 ovarian, > 100 µM; in the assay on K-562 leukemia, > 100 µM; with NCI-H522 lung, 32.3 µM; in the assay on MDA-MB-231 breast, > 100 µM; in the assay with RXF 393 renal, 48.6 µM. For the same molecule, the TGI in the assay with MCF7 breast is > 100 µM; in the assay on BT-549 breast, 61.6 µM; with UACC-257 melanoma, 34.9 µM.
On to `N#Cc1c2c(c(Nc3ccc(Cl)cc3)n3c1nc1ccccc13)CCCC2`, for which the TGI in the assay with HCT-116 colon is > 100 µM; with IGROV1 ovarian it was > 100 µM; in the assay with K-562 leukemia it was > 100 µM; with NCI-H522 lung, > 100 µM; with MDA-MB-231 breast it was > 100 µM; with RXF 393 renal, > 85.1 µM. In addition, the TGI in the assay on MCF7 breast, with BT-549 breast and in the assay on UACC-257 melanoma was > 100 µM in each case.
Consider `NNC(=O)COc1nc(-c2cccs2)nc2ccc(I)cc12`, for which the TGI in the assay with HCT-116 colon was 36.3 µM; in the assay with IGROV1 ovarian, 56.3 µM; in the assay with K-562 leukemia, > 100 µM; in the assay on NCI-H522 lung, 45.8 µM; in the assay on RXF 393 renal, > 100 µM; in the assay on MCF7 breast, 88.7 µM. The TGI was > 100 µM in the assay with MDA-N and 38.9 µM with BT-549 breast. The GI50 with K-562 leukemia was 37 µM.
On to `Oc1[nH]c2ccccc2c1N=Nc1nc(-c2ccccc2)cs1`, for which the TGI was > 100 µM in the assay with HCT-116 colon; > 100 µM in the assay on IGROV1 ovarian; 99.7 µM in the assay with MDA-MB-231 breast; > 100 µM in the assay with MCF7 breast; > 100 µM with MDA-N; > 100 µM in the assay with UACC-257 melanoma.
As to `N/N=C(\N)SCc1ccc(N=C=S)cc1`, the TGI with HCT-116 colon, with IGROV1 ovarian, in the assay on K-562 leukemia, with NCI-H522 lung, in the assay with MDA-MB-231 breast and in the assay with RXF 393 renal was > 100 µM in each case. Besides, the TGI with MDA-N and in the assay on UACC-257 melanoma was > 100 µM throughout.
For `Cc1ccc(C)c(C(=O)CC2OC(O)C(Cl)C2Cl)c1` (stereo not drawn), the TGI was > 100 µM in the assay with HCT-116 colon; > 100 µM in the assay with IGROV1 ovarian; > 100 µM in the assay on K-562 leukemia; 29.4 µM in the assay on NCI-H522 lung; 86 µM in the assay on RXF 393 renal; > 100 µM in the assay on UACC-257 melanoma.
`CCOC(=O)c1sc2nc(SC)nc3c2c1NCN3c1ccccc1Cl`: the TGI with HCT-116 colon was > 100 µM; with IGROV1 ovarian, > 100 µM; in the assay with K-562 leukemia, > 100 µM; in the assay on NCI-H522 lung, 52.7 µM; in the assay with MDA-MB-231 breast it was > 100 µM; in the assay on RXF 393 renal it was 73 µM. The TGI in the assay with MDA-N, in the assay with BT-549 breast and with UACC-257 melanoma was > 100 µM in each case.

The values above are taken from PubChem BioAssay (NCI).
